Measurements as given in patent publication US6831199B1, “Pyrimidine compounds and derivatives thereof” (G. D. Searle & Co., priority 1995, dated 2004).
Structures can show the parent of a compound that is named as a salt.

What was measured:
[1] = target: T1, Human fibrinogen receptor (αIIbβ3) (Homo sapiens, UniProt P05106+P08514); test: Purified IIb/IIIa receptor assay (solid phase receptor assay, competition with biotinylated vitronectin); type: binding; conditions: read-out: IIb/IIIa IC50
T1 construct: Human fibrinogen receptor (αIIbβ3) was purified from outdated platelets; from tissue; host or cells: outdated human platelets
Experimental: PURIFIED IIb/IIIa RECEPTOR ASSAY
Human fibrinogen receptor (αIIbβ3) was purified from outdated platelets. […] Biotinylated human vitronectin was prepared by coupling NHS-biotin from Pierce Chemical Company (Rockford, Ill.) to purified vitronectin as previously described. […] Anti-biotin antibody was obtained from Calbiochem (La Jolla, Calif.). Linbro microtiter plates were obtained from Flow Labs (McLean, Va.). ADP reagent was obtained from Sigma (St. Louis, Mo.).
(§1) Solid Phase Receptor Assays
(§2) The purified human fibrinogen receptor (αIIbβ3) was diluted from stock solutions to 1.0 μg/mL in Tris-buffered saline containing 1.0 mM Ca^++, Mg^++, and Mn^++, pH 7.4 (TBS^+++). The diluted receptor was immediately transferred to Linbro microtiter plates at 100 μL/well (100 ng receptor/well). The plates were sealed and incubated overnight at 4° C. to allow the receptor to bind to the wells. All remaining steps were at room temperature. The assay plates were emptied and 200 μL of 1% RIA grade BSA in TBS^+++ (TBS^+++/BSA) were added to block exposed plastic surfaces. Following a 2 hour incubation, the assay plates were washed with TBS^+++ using a 96 well plate washer. Logarithmic serial dilution of the test compound and controls were made starting at a stock concentration of 2 mM and using 2 nM biotinylated vitronectin in TBS^+++/BSA as the diluent. This premixing of labeled ligand with test (or control) ligand, and subsequent transfer of 50 μL aliquots to the assay plate was carried out with a CETUS Propette robot; the final concentration of the labeled ligand was 1 nM and the highest concentration of test compound was 1.0×10^−4 M. The competition occurred for two hours after which all wells were washed with a plate washer as before. Affinity purified horseradish peroxidase labeled goat anti-biotin antibody was diluted 1:3000 in TBS^+++/BSA and 125 μL were added to each well. After 30 minutes, the plates were washed and incubated with ODD/H2O2 substrate in 100 mM/L citrate buffer, pH 5.0. The plate was read with a microtiter plate reader at a wavelength of 450 nm and when the maximum-binding control wells reached an absorbance of about 1.0, the final A450 were recorded for analysis. The data were analyzed using a macro written for use with the EXCEL™ spreadsheet program. The mean, standard deviation, and % CV were determined for duplicate concentrations. The mean A450 values were normalized to the mean of four maximum-binding controls (no competitor added)(B-MAX). The normalized values were subjected to a four parameter curve fit algorithm, [Robard et al., Int.

[2] = target: T2, Human vitronectin receptor (αvβ3) (Homo sapiens, UniProt P05106+P06756); test: Vitronectin adhesion assay (solid phase receptor assay, competition with biotinylated vitronectin); type: binding; conditions: read-out: AvB3 IC50
T2 construct: Human vitronectin receptor (αvβ3) was purified from human placenta; from tissue; host or cells: human placenta
Experimental: VITRONECTIN ADHESION ASSAY
Assay buffer, OPD substrate tablets, and RIA grade BSA were obtained from Sigma (St. Louis, Mo.). Anti-biotin antibody was obtained from Calbiochem (La Jolla, Calif.). Linbro microtiter plates were obtained from Flow Labs (McLean, Va.). ADP reagent was obtained from Sigma (St. Louis, Mo.).
as §1
as §2, with “vitronectin” for “fibrinogen”, “(αvβ3)” for “(αIIbβ3)”, “TBS^+++(TBS^+++/BSA)” for “TBS^+++ (TBS^+++/BSA)”, “OPD/H2O2” for “ODD/H2O2”, “Citrate” for “citrate”, “algorithm [Rodbard” for “algorithm, [Robard”

| IC50 [1] [nM] | IC50 [2] [nM] | Structure (SMILES) |
| --- | --- | --- |
| 3150 | 227 | CCOC(=O)CC(NC(=O)CNC(=O)c1cccc(NC(=N)N)c1)c1ccc2c(c1)OCO2 (racemic) [Example 5, (±)ethyl β-[[2-[[[3-[(aminoiminomethyl)amino]phenyl]carbonyl]amino]acetyl]amino]-1,3-benzodioxole-5-propanoate, trifluoroacetate salt] |
| 9800 | 124 | N=C(N)Nc1cccc(C(=O)NC2CCN(CCC(=O)O)C2=O)c1 (racemic) [Example 42, (±)3-[[[3-[(aminoiminomethyl)amino]phenyl]carbonyl]amino]-2-oxopyrrolidine-1-propanoic acid, trifluoroacetate salt] |
| > 100000 | 9730 | CCOC(=O)CC(NC(=O)CNC(=O)c1cccc(NC(=N)N)c1)c1ccoc1 (racemic) [Example 51, (±)ethyl β-[[2-[[[3-[(aminoiminomethyl)amino]phenyl]carbonyl]amino]acetyl]amino]furan-3-propanoate, trifluoroacetate salt] |
| 15300 | 1340 | COC(=O)CC(NC(=O)CNC(=O)c1cccc(NC(=N)N)c1)c1ccsc1 (racemic) [Example 57, (±)methyl β-[[2-[[[3-[(aminoiminomethyl)amino]phenyl]carbonyl]amino]acetyl]amino]thiophene-3-propanoate, trifluoroacetate salt] |
| 8.07 | 6.65 | N=C(N)NCc1cccc(C(=O)NCC(=O)NC(CC(=O)O)c2cccnc2)c1 (racemic) [Example 85, (±)β-[[2-[[[3-[[(aminoiminomethyl)amino]methyl]phenyl]carbonyl]amino]acetyl]amino]pyridine-3-propanoic acid, bis(trifluoroacetate)salt] |
| 9830 | 1240 | N=C(N)Nc1cccc(C(=O)NCC(=O)NC(CC(=O)O)C(=O)NCCO)c1 (racemic) [Example 89, (±)3-[[2-[[[3-[(aminoiminomethyl)amino]phenyl]carbonyl]amino]acetyl]amino]-4-[(2-hydroxyethyl)amino]-4-oxobutanoic acid, trifluoroacetate salt] |
| 500 | 146 | CCOC(=O)CC(NC(=O)CNC(=O)c1cccc(NC(=N)N)c1)c1cnc2ccccc2c1 (racemic) [Example 98, (±)ethyl β-[[2-[[[3-[(aminoiminomethyl)amino]phenyl]carbonyl]amino]acetyl]amino]-quinoline-3-propanoate, bis(trifluoroacetate)salt] |
| 205 | 2.12 | N=C(N)Nc1cccc(C(=O)NCC(=O)NC(CC(=O)O)c2ccc(Cl)c(Cl)c2)c1 (racemic) [Example 175, (±)β-[[2-[[[3-[(aminoiminomethyl)amino]phenyl]carbonyl]amino]acetyl]amino]-3,4-dichlorobenzenepropanoic acid, trifluoroacetate salt] |
| 927 | 2.72 | O=C(O)CC(NC(=O)CNC(=O)c1cccc(NC2=NCCN2)c1)c1cc(C(F)(F)F)cc(C(F)(F)F)c1 (racemic) [Example 179, (±)β-[[2-[[[3-[(4,5-dihydro-1H-imidazol-2-yl)amino]phenyl]carbonyl]amino]acetyl]-amino]-3,5-bis(trifluoromethyl)benzenepropanoic acid, trifluoroacetate salt] |
| 22800 | 132 | Cc1ccc(C)c(C(CC(=O)O)NC(=O)CNC(=O)c2cccc(NC(=N)N)c2)c1 (racemic) [Example 181, (±)β-[[2-[[[3-[(aminoiminomethyl)amino]phenyl]carbonyl]amino]acetyl]amino]-2,5-dimethylbenzenepropanoic acid, trifluoroacetate salt] |
| 258 | 1.58 | N=C(N)Nc1cccc(C(=O)NCC(=O)NC(CC(=O)O)c2cccc(Cl)c2)c1 (racemic) [Example 183, (±)β-[[2-[[[3-[(aminoiminomethyl)amino]phenyl]carbonyl]amino]acetyl]amino]-3-chlorobenzenepropanoic acid, trifluoroacetate salt] |
| 166 | 1.47 | N=C(N)Nc1cccc(C(=O)NCC(=O)NC(CC(=O)O)c2cccc(Br)c2)c1 (racemic) [Example 185, (±)β-[[2-[[[3-[(aminoiminomethyl)amino]phenyl]carbonyl]amino]acetyl]amino]-3-bromobenzenepropanoic acid, trifluoroacetate salt] |
| 264 | 1.31 | N=C(N)Nc1cccc(C(=O)NCC(=O)NC(CC(=O)O)c2ccc(Br)cc2)c1 (racemic) [Example 187, (±)β-[[2-[[[3-[(aminoiminomethyl)amino]phenyl]carbonylamino]acetyl]amino]-4-bromobenzenepropanoic acid, trifluoroacetate salt] |
| 1980 | 4.03 | O=C(O)CC(NC(=O)CNC(=O)c1cccc(NC2=NCCCCC2)c1)c1cc(Cl)cc(Cl)c1 (racemic) [Example 189, (±)β-[[2-[[[3-[(3,4,5,6-tetrahydro-2H-azepin-7-yl)amino]phenyl]carbonyl]amino]acetyl]amino]-3,5-dichlorobenzenepropanoic acid, trifluoroacetate salt] |
| 98 | 1.09 | COc1cc(OC)cc(C(CC(=O)O)NC(=O)CNC(=O)c2cccc(NC(=N)N)c2)c1 (racemic) [Example 195, (±)β-[[2-[[[3-[(aminoiminomethyl)amino]phenyl]carbonyl]amino]acetyl]amino]-3,5-dimethoxybenzenepropanoic acid, trifluoroacetate salt] |
| 37800 | 114 | CNC(=NC#N)Nc1cccc(C(=O)NCC(=O)NC(CC(=O)O)c2cc(Cl)cc(Cl)c2)c1 (racemic) [Example 198, (±)3,5-dichloro-β-[[2-[[[3-[(cyanoimino)(methylamino)methyl]amino]phenyl]carbonyl]amino]acetyl]amino]benzenepropanoic acid] |
| 10800 | 58.1 | CNC(=NC(N)=O)Nc1cccc(C(=O)NCC(=O)NC(CC(=O)O)c2cc(Cl)cc(Cl)c2)c1 (racemic) [Example 201, (±)β-[[2-[[[3-[[[(aminocarbonyl)imino)methylamino)methyl]amino]phenyl]carbonyl]amino]acetyl]amino]-3,5-dichlorobenzenepropanoic acid] |
| 650 | 3.56 | O=C(O)CC(NC(=O)CNC(=O)c1cccc(NC2=NCCC2)c1)c1cc(Cl)cc(Cl)c1 (racemic) [Example 203, (±)β-[[2-[[[3-[(3,4-dihydro-2H-pyrrol-5-yl)amino]phenyl]carbonyl]amino]acetyl]amino]-3,5-dichlorobenzenepropanoic acid, trifluoroacetate salt] |
